In EP4620959A1, “CYCLIC COMPOUNDS USED AS MULTI-TARGET KINASE INHIBITORS AND PREPARATION METHOD THEREFOR” (Shanghai Institute of Organic Chemistry, Chinese Academy of …, priority 2022, dated 2024):

target: LRRK2 wt (Homo sapiens, UniProt Q5S007); assay: Kinase activity inhibition assay (ADP-Glo), LRRK2 wt; type: biochemical; conditions: ATP 20 µM, compound at 100 nM
Protocol: The kinase activity inhibition assay was performed by ICE Bioscience (Beijing) using ADP-Glo and HTRF methods.
Table 1.1-1 ADP-Glo Buffer
Table 1.2-1 ADP-Glo Kinase and Substrate Formulation
SD is the standard error, and AVE is the average value. Table 2-1 LRRK2 Activity Inhibition Test Results

Sequence of LRRK2 wt (Q5S007 whole entry): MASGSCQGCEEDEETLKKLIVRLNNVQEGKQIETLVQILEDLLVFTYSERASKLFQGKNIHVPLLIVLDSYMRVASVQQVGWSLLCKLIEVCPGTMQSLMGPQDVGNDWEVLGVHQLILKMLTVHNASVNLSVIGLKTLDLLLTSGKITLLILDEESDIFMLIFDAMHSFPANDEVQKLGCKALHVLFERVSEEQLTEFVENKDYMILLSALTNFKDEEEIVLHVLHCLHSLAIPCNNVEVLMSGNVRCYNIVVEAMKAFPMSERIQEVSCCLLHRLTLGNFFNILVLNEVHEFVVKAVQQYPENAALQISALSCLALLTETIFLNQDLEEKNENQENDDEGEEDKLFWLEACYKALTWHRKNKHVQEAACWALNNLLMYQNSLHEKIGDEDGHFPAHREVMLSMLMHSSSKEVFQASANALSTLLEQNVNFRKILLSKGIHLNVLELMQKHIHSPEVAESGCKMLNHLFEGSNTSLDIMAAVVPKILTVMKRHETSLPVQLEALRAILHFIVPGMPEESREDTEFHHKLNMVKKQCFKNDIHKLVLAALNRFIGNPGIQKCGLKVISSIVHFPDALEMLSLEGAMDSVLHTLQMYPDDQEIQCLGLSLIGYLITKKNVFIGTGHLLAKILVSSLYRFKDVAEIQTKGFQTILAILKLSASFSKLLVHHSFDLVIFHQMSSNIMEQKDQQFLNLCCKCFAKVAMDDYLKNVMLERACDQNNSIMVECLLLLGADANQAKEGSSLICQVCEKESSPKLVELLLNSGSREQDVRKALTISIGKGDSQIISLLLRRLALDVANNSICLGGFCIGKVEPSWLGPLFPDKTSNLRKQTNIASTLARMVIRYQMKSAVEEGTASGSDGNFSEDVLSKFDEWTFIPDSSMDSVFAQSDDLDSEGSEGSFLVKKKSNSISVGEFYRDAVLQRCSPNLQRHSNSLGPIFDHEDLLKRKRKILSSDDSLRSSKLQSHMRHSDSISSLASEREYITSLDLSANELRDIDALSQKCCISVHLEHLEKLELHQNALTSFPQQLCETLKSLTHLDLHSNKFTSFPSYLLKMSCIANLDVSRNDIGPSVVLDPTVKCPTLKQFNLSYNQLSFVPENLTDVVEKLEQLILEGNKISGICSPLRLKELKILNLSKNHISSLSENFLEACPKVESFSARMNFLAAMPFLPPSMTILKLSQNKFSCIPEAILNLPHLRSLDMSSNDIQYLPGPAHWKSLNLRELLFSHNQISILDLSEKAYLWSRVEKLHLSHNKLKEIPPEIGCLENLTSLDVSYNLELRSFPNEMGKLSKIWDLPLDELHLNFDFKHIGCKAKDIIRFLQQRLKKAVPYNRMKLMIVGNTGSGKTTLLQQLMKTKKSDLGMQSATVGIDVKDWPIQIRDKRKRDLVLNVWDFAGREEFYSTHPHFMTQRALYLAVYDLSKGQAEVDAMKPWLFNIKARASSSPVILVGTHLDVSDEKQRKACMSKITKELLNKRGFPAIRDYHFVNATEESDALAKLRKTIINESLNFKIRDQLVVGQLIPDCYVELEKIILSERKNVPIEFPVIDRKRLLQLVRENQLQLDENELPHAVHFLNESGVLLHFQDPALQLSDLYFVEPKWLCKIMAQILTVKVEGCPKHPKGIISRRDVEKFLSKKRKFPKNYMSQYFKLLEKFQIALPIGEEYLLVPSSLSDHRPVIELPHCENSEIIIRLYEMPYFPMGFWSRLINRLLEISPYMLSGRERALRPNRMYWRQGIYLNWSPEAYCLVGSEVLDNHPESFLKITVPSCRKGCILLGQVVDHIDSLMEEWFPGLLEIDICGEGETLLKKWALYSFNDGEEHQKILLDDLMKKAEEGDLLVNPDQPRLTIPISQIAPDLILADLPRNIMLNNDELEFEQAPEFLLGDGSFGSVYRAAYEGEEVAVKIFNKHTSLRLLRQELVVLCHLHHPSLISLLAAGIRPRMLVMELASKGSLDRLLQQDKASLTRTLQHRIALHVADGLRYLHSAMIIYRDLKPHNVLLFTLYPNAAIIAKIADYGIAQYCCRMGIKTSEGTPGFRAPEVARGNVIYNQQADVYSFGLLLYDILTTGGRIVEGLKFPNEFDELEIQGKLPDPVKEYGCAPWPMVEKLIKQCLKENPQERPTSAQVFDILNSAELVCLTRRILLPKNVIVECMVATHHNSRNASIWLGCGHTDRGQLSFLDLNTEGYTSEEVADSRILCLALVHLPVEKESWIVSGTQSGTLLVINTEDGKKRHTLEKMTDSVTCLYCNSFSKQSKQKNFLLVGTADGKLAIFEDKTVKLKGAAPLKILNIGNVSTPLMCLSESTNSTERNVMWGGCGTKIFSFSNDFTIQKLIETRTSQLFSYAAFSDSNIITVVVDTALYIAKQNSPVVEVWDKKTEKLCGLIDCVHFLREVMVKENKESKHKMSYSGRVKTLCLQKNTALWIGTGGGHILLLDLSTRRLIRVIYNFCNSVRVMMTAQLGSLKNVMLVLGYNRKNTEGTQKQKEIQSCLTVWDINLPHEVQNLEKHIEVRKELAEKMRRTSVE

| LRRK2 wt inhibition rate at 100 nM | SMILES |
| --- | --- |
| 42.08%@100 nM | Cc1nn2cc1Nc1ncc(C(F)(F)F)c(n1)NC1CCCC(C1)NC(=O)C2(C)C (stereo not shown) [Example T-42, (5^3R,E)-1^3,8,8-Trimethyl-3^5-(trifluoromethyl)-1^1H-2,4,6-triaza-3(2,4)-pyrimidina-1(4,1)-pyrazola-5(1,3)-cyclohexacyclooctan-7-one] |

same assay, conditions: read-out: LRRK2 wt inhibition rate at 100 nM, ATP 20 µM, compound at 100 nM

| inhibition at 0.1 µM | SMILES |
| --- | --- |
| 55% | Cc1nn2cc1Nc1ncc(C(F)(F)F)c(n1)NCCCOCCNC(=O)C2(C)C [Example T-2, (E)-3^3,4,4-Trimethyl-1^5-(trifluoromethyl)-3^1H-9-oxa-2,6,13-triaza-1(2,4)-pyrimidina-3(4,1)-pyrazolacyclotridecan-5-one] |
| -0.5% | Cc1nn2cc1Nc1ncc3[nH]nc(c3n1)CCCNC(=O)C2(C)C [Example T-9, (E)-3^3,4,4-Trimethyl-1^1H,3^1H-2,6-diaza-1(5,3)pyrazolo[4,3-d]pyrimidine-3(4,1)-pyrazolacyclononan-5-one] |
| 86.1% | Cc1nn2cc1Nc1ncc(C(F)(F)F)c(n1)NCCCn1cc(nn1)C2(C)C [Example T-16, (3^4E,5^4Z)-3^3,4,4-Trimethyl-1^5-(trifluoromethyl)-3^1H,5^1H-2,9-diaza-1(2,4)-pyrimidina-5(4,1)-triazole-3(4,1)-pyrazolacyclononane] |
| 96.9% | Cc1nn2cc1Nc1ncc(C(F)(F)F)c(n1)NCCCn1ncc(n1)C2(C)C [Example T-17, (3^4E,5^3Z)-3^3,4,4-Trimethyl-1^5-(trifluoromethyl)-3^1H,5^2H-2,9-diaza-1(2,4)-pyrimidina-5(4,2)-triazole-3(4,1)-pyrazolacyclononane] |
| 6.61% | Cc1nn2cc1Nc1ncc3[nH]cc(c3n1)CCCNC(=O)C2(C)C [Example T-18, (E)-3^3,4,4-Trimethyl-1^5H,3^1H-2,6-diaza-1(2,7)-pyrrolo[3,2-d]pyrimidine-3(4,1)-pyrazolacyclononan-5-one] |
| 11.6% | Cc1nn2cc1Nc1ncc3c(n1)c(nn3C)CCCNC(=O)C2(C)C [Example T-19, (E)-1^1,3^3,4,4-Tetramethyl-1^1H,3^1H-2,6-diaza-1(5,3)-pyrazolo[4,3-d]pyrimidine-3(4,1)-pyrazinacyclononan-5-one] |
| 0.84% | Cc1nn2cc1Nc1ncc3nn(C)c(c3n1)CCCNC(=O)C2(C)C [Example T-20, (1^3E,1^4Z,3^4E)-1^2,3^3,4,4-Tetramethyl-1^2H,3^1H-2,6-diaza-1(5,3)-pyrazolo[4,3-d]pyrimidine-3(4,1)-pyrazinacyclononan-5-one] |
| 60.1% | Cc1nn2cc1Nc1ncc3c(n1)c(cn3C)CCCNC(=O)C2(C)C [Example T-21, (E)-1^5,3^3,4,4-Tetramethyl-1^5H,3^1H-2,6-diaza-1(2,7)-pyrrolo[3,2-d]pyrimidine-3(4,1)-pyrazolacyclononan-5-one] |
| 92.5% | Cc1nn2cc1Nc1ncc3c(Cl)cn(c3n1)CCCCNC(=O)C2(C)C [Example T-22, (E)-1^5-Chloro-3^3,4,4-trimethyl-1^7H,3^1H-2,6-diaza-1(2,7)-pyrrolo[2,3-d]pyrimidine-3(4,1)-pyrazolacyclodecan-5-one] |
| 19.1% | Cc1nn2cc1Nc1ncc3c(Cl)cn(c3n1)CCCCN(C)C(=O)C2(C)C [Example T-23, (E)-1^5-Chloro-3^3,4,4,6-tetramethyl-1^7H,3^1H-2,6-diaza-1(2,7)-pyrrolo[2,3-d]pyrimidine-3(4,1)-pyrazolacyclodecan-5-one] |
| 57.3% | Cc1nn2cc1Nc1ncc3ccc(n3n1)CCCNC(=O)C2(C)C [Example T-24, (1^1Z,3^4E)-3^3,4,4-Trimethyl-3^1H-2,6-diaza-1(2,7)-pyrrolo[2,1-f][1,2,4]triazine-3(4,1)-pyrazolacyclononan-5-one] |
| 98.4% | Cc1nn2cc1Nc1ncc3c(Cl)cc(n3n1)CCCCNC(=O)C2(C)C [Example T-26, (1^1Z,3^4E)-1^5-Chloro-3^3,4,4-trimethyl-3^1H-2,6-diaza-1(2,7)-pyrrolo[2,1-f][1,2,4]triazine-3(4,1)-pyrazolacyclodecan-5-one] |
| 88% | CC1(C)C(=O)NCCCc2cc(Cl)c3cnc(nn23)Nc2cn1nc2Cl [Example T-27, (1^1Z,3^4E)-1^53^3-Dichloro-4,4-dimethyl-3^1H-2,6-diaza-1(2,7)-pyrrolo[2,1-f][1,2,4]triazine-3(4,1)-pyrazolacyclononan-5-one] |
| 98.3% | CC1(C)C(=O)NCCCc2cc(Cl)c3cnc(nn23)Nc2cn1nc2C1CC1 [Example T-28, (1^1Z,3^4E)-1^5-Chloro-3^3-cyclopropyl-4,4-dimethyl-3^1H-2,6-diaza-1(2,7)-pyrrolo[2,1-f][1,2,4]triazine-3(4,1)-pyrazolacyclononan-5-one] |
| 95.6% | Cc1nn2cc1Nc1ncc3c(C(F)(F)F)cc(n3n1)CCCNC(=O)C2(C)C [Example T-29, (1^1Z,3^4E)-3^3,4,4-Trimethyl-1^5-(trifluoromethyl)-3^1H-2,6-diaza-1(2,7)-pyrrolo[2,1-f][1,2,4]triazine-3(4,1)-pyrazolacyclononan-5-one] |
| 61.3% | Cc1nn2cc1Nc1ncc3c(C#N)cc(n3n1)CCCNC(=O)C2(C)C [Example T-30, (1^1Z,3^4E)-3^3,4,4-Trimethyl-5-oxo-3^1H-2,6-diaza-1(2,7)-pyrrolo[2,1-f][1,2,4]triazine-3(4,1)-pyrazolacyclononan-1^5-carbonitrile] |
| 8.85% | Cc1nn2cc1Nc1ncc(C(F)(F)F)c(n1)N(C)CCCN(C)C(=O)C2(C)C [Example T-31, (E)-3^3,4,4,6,10-Pentamethyl-1^5-(trifluoromethyl)-3^1H-2,6,10-triaza-1(2,4)-pyrimidina--3(4,1)-pyrazolacyclodecan-5-one] |
| 91.6% | Cc1nn2cc1Nc1ncc(C(F)(F)F)c(n1)N(C)CCCNC(=O)C2(C)C [Example T-32, (E)-3^3,4,4,10-Tetramethyl-1^5-(trifluoromethyl)-3^1H-2,6,10-triaza-1(2,4)-pyrimidina-3(4,1)-pyrazolacyclodecan-5-one] |
| 2.45% | Cc1nn2cc1Nc1ncc(C(F)(F)F)c(n1)NCCCN(C)C(=O)C2(C)C [Example T-33, (E)-3^3,4,4,6-Tetramethyl-1^5-(trifluoromethyl)-3^1H-2,6,10-triaza-1(2,4)-pyrimidina-3(4,1)-pyrazolacyclodecan-5-one] |
| -12.7% | Cc1nn2cc1Nc1ncc(C(F)(F)F)c(n1)NCCCN(C)CC2(C)C [Example T-34, (E)-3^3,4,4,6-Tetramethyl-1^5-(trifluoromethyl)-3^1H-2,6,10-triaza-1(2,4)-pyrimidina-3(4,1)-pyrazolacyclodecane] |
| 9.41% | Cc1nn2cc1Nc1ncc(C(F)(F)F)c(n1)NCCn1cc(nn1)CC2(C)C [Example T-35, (3^4E,6^4Z)-3^3,4,4-Trimethyl-1^5-(trifluoromethyl)-3^1H,6^1H-2,9-diaza-1(2,4)-pyrimidina-6(4,1)-triazole-3(4,1)-pyrazolacyclononane] |
| 28.9% | Cc1nn2cc1Nc1ncc(C(F)(F)F)c(n1)NCCn1ncc(n1)CC2(C)C [Example T-36, (3^4E,6^3Z)-3^3,4,4-Trimethyl-1^5-(trifluoromethyl)-3^1H,6^2H-2,9-diaza-1(2,4)-pyrimidina-6(4,2)-triazole-3(4,1)-pyrazolacyclononane] |
| 83.4% | Cc1nn2cc1Nc1ncc(C(F)(F)F)c(n1)NCCCOC(=O)C2(C)C [Example T-37, (E)-3^3,4,4-Trimethyl-1^5-(trifluoromethyl)-3^1H-6-oxa-2,10-diaza-1(2,4)-pyrimidina-3(4,1)-pyrazolacyclodecan-5-one] |
| 37.7% | Cc1nn2cc1Nc1ncc(C(F)(F)F)c(n1)NCCC(C)NC(=O)C2(C)C (stereo not shown) [Example T-38, (E)-3^3,4,4,7-Tetramethyl-1^5-(trifluoromethyl)-3^1H-2,6,10-triaza-1(2,4)-pyrimidina-3(4,1)-pyrazolacyclodecan-5-one] |
| 28.9% | Cc1nn2cc1Nc1ncc(C(F)(F)F)c(n1)NCCC(C)(C)NC(=O)C2(C)C [Example T-39, (E)-3^3,4,4,7,7-Pentamethyl-1^5-(trifluoromethyl)-3^1H-2,6,10-triaza-1(2,4)-pyrimidina-3(4,1)-pyrazolacyclodecan-5-one] |
| 56.1% | Cc1nn2cc1Nc1ncc(C(F)(F)F)c(n1)NC/C=C/CNC(=O)C2(C)C [Example T-40, (3^4E,8E)-3^3,4,4-Trimethyl-1^5-(trifluoromethyl)-3^1H-2,6,11-triaza-1(2,4)-pyrimidina-3(4,1)-pyrazolylundecapentaene-5-one] |
| 20.8% | Cc1nn2cc1Nc1ncc(C(F)(F)F)c(n1)N[C@H]1CC[C@H](CC1)NC(=O)C2(C)C [Example T-41, (5^1s,5^4s,E)-1^3,8,8-Trimethyl-3^5-(trifluoromethyl)-1^1H-2,4,6-triaza-3(2,4)-pyrimidina-1(4,1)-pyrazola-5(1,4)-cyclohexacyclooctan-7-one] |
| 64.6% | Cc1nn2cc1Nc1ncc(C(F)(F)F)c(n1)NCC(F)(F)COC(=O)C2(C)C [Example T-43, (E)-8,8-Difluoro-3^3,4,4-trimethyl-1^5-(trifluoromethyl)-3^1H-6-oxa-2,10-diaza-1(2,4)-pyrimidina-3(4,1)-pyrazolacyclodecan-5-one] |
| 56.8% | Cc1nn2cc1Nc1ncc(C(F)(F)F)c(n1)NCC1(CC1)CNC(=O)C2(C)C [Example T-44, (E)-3',4',4'-Trimethyl-5'-(trifluoromethyl)spiro[cyclopropane-8'-2,6,10-triaza-1(2,4)-pyrimidina-3(4,1)-pyrazolacyclodecan]-5'-one] |
| -1.97% | Cc1nn2cc1Nc1ncc(C(F)(F)F)c(n1)NC(C)(C)CCNC(=O)C2(C)C [Example T-45, (E)-3^3,4,4,9,9-Pentamethyl-1^5-(trifluoromethyl)-3^1H-2,6,10-triaza-1(2,4)-pyrimidina-3(4,1)-pyrazolacyclodecan-5-one] |
